From US20250129104A1, “7H-PYRROLO[2,3-D]PYRIMIDINES AND PREPARATION AND USES THEREOF” (BioSplice Therapeutics, Inc., priority 2021, published 2025)

These compounds were tested against recombinant DYRK1A kinase (Homo sapiens (Human), UniProt Q13627) (assay: DYRK1A kinase assay (Ser/Thr 18 peptide Z-lyte FRET assay)). Conditions: DYRK1A kinase activity; 15 μM ATP, 1 h room temperature; method text calls the value IC50.
Type: biochemical
Description: Representative compounds were screened using the assay procedure for DYRK1A kinase activity as described below.
Each compound was dissolved in DMSO as a 10 mM stock and used to prepare compound source plates. Serial dilution (1:3, 11-point dose-response curves from 10 μM to 0.00016 μM) and compound transfer was performed using the ECHO 550 (Labcyte, Sunnyvale, CA) into 1536-well black-walled round bottom plates (Corning).
The DYRK1A kinase assay was run using the Ser/Thr 18 peptide Z-lyte assay kit according to manufacturer's instructions (Life Technologies—a Division of Thermo-Fisher). This is a non-radioactive assay using fluorescence resonance energy transfer (FRET) between coumarin and fluorescein to detect kinase activity which is represented as a ratio of coumarin emission/fluorescein emission.
Briefly, recombinant DYRK1A kinase, ATP and Ser/Thr peptide 18 were prepared in 1× Kinase buffer to final concentrations of 0.25 μg/mL, 15 μM, and 4 μM respectively. The mixture was allowed to incubate with the representative compounds for one hour at room temperature. All reactions were performed in duplicate. Unphosphorylated (“0% Control”) and phosphorylated (“100% control”) forms of Ser/Thr 18 served as control reactions. Additionally, an 11-point dose-response curve of Staurosporine (1 uM top) was run to serve as a positive compound control.
After incubation, Development Reagent A was diluted in Development Buffer then added to the reaction and allowed to further incubate for one hour at room temperature. The plate was read at Ex 400 Em […] to detect the coumarin signal and Ex 400 Em 520 to measure the signal (EnVision Multilabel Plate Reader, PerkinElmer).
The Emission ratio (Em) was calculated as a ratio of the coumarin (C) emission signal (at 445 nm)/Fluorescein (F) emission signal (at 520 nm). The percent phosphorylation was then calculated using the following formula: [1−((Em ratio×F100%)−C100%)/((C0%−C100%)+(Em ratio×(F100%−F0%)))]. Dose-response curves were generated, and inhibitory concentration (IC50) values were calculated using non-linear regression curve fit in the Dotmatics' Studies Software (Bishops Stortford, UK).
For “4-Methoxy-N-(cis-4-methoxycyclohexyl)-5-(1-methyl-1H-benzo[d][1,2,3]triazol-6-yl)-7H-pyrrolo[2,3-d]pyrimidin-2-amine [Compound 3114]”, the EC50 was 1.2 nM.
“5-(1-(2,2-Difluoroethyl)-1H-benzo[d][1,2,3]triazol-6-yl)-4-methoxy-N-(cis-4-(trifluoromethoxy)cyclohexyl)-7H-pyrrolo[2,3-d]pyrimidin-2-amine [Compound 2297]” gave an EC50 of 458 nM.
With “5-(1-(2,2-Difluoroethyl)-1H-benzo[d][1,2,3]triazol-6-yl)-N-(2-fluoro-2-methylpropyl)-4-methoxy-7H-pyrrolo[2,3-d]pyrimidin-2-amine [Compound 2292]” the EC50 was 17.4 nM.
With “5-(1-(2,2-Difluoroethyl)-1H-benzo[d][1,2,3]triazol-6-yl)-N-(cis-4-(difluoromethoxy)cyclohexyl)-4-methoxy-7H-pyrrolo[2,3-d]pyrimidin-2-amine [Compound 2296]” the EC50 was 103 nM.
“5-(2-Cyclopropyl-7H-pyrrolo[2,3-d]pyrimidin-5-yl)-N-methyl-N-(tetrahydro-2H-pyran-4-yl)pyrazolo[1,5-a]pyridine-3-carboxamide [Compound 1552]” was tested, and the EC50 was 194 nM.
Work on “5-(3-Chloropyrazolo[1,5-a]pyrimidin-5-yl)-N-(2-fluoro-2-methylpropyl)-7H-pyrrolo[2,3-d]pyrimidin-2-amine [Compound 1680]” yielded an EC50 of 26.1 nM.
Compound “5-(Imidazo[1,2-a]pyrazin-6-yl)-7H-pyrrolo[2,3-d]pyrimidine [Compound 491]” has an EC50 of 15.5 nM.
For COc1ccc(-c2c[nH]c3nc(NCC(C)(C)F)ncc23)cc1 [Compound 1, N-(2-Fluoro-2-methylpropyl)-5-(4-methoxyphenyl)-7H-pyrrolo[2,3-d]pyrimidin-2-amine], the EC50 was 236 nM.
COc1ccc(-c2c[nH]c3nc(NC4CCN(S(C)(=O)=O)CC4)ncc23)c(OC)c1 [Compound 2, 5-(2,4-Dimethoxyphenyl)-N-(1-(methylsulfonyl)piperidin-4-yl)-7H-pyrrolo [2,3-d]pyrimidin-2-amine] showed an EC50 of 43.8 nM.
With Cn1cc(-c2c[nH]c3nc(NCC(C)(C)F)ncc23)ccc1=O [Compound 3, 5-(2-((2-Fluoro-2-methylpropyl)amino)-7H-pyrrolo[2,3-d]pyrimidin-5-yl)-1-methylpyridin-2(1H)-one] the EC50 was 22.1 nM.
For Cn1cc(-c2c[nH]c3nc(NC4CCC(F)(F)CC4)ncc23)ccc1=O [Compound 4, 5-(2-((4,4-Difluorocyclohexyl)amino)-7H-pyrrolo[2,3-d]pyrimidin-5-yl)-1-methylpyridin-2(1H)-one], the EC50 was 411 nM.
With CC(C)(F)CNc1ncc2c(-c3ccc(C(F)F)nc3)c[nH]c2n1 [Compound 5, 5-(6-(Difluoromethyl)pyridin-3-yl)-N-(2-fluoro-2-methylpropyl)-7H-pyrrolo [2,3-d]pyrimidin-2-amine] the EC50 was 1400 nM.
Work on COc1ccc(-c2c[nH]c3nc(NCC(C)(C)F)ncc23)cn1 [Compound 6, N-(2-Fluoro-2-methylpropyl)-5-(6-methoxypyridin-3-yl)-7H-pyrrolo[2,3-d]pyrimidin-2-amine] yielded an EC50 of 33.9 nM.
In the case of CC(C)(F)CNc1ncc2c(-c3ccc(OC(F)F)nc3)c[nH]c2n1 [Compound 7], the EC50 is reported as greater than 10000 nM.
COc1ccc(-c2c[nH]c3ncnc(N[C@H]4CC[C@H](N5CCOCC5)CC4)c23)cn1 [Compound 8, 5-(6-Methoxypyridin-3-yl)-N-(trans-4-morpholinocyclohexyl)-7H-pyrrolo [2,3-d]pyrimidin-4-amine] showed an EC50 of 768 nM.
COc1ncc(-c2c[nH]c3nc(NCC(C)(C)F)ncc23)cn1 [Compound 9, N-(2-Fluoro-2-methylpropyl)-5-(2-methoxypyrimidin-5-yl)-7H-pyrrolo[2,3-d]pyrimidin-2-amine] showed an EC50 of 778 nM.
In the case of CN1CCN(c2ccc(CNc3ncc4c(-c5ccc6c(c5)CNC6=O)c[nH]c4n3)cn2)CC1 [Compound 10, 5-(2-(((6-(4-Methylpiperazin-1-yl)pyridin-3-yl)methyl)amino)-7H-pyrrolo [2,3-d]pyrimidin-5-yl)isoindolin-1-one], the EC50 is reported as 96.8 nM.
Cc1nc2ccc(-c3c[nH]c4nc(NCC(C)(C)F)ncc34)nc2s1 [Compound 54, N-(2-Fluoro-2-methylpropyl)-5-(2-methylthiazolo[5,4-b]pyridin-5-yl)-7H-pyrrolo[2,3-d]pyrimidin-2-amine] gave an EC50 of 671 nM.
CN1CCN(c2ccc(Nc3ncc4c(-c5cc6cnccc6s5)c[nH]c4n3)cn2)CC1 [Compound 93, N-(6-(4-Methylpiperazin-1-yl)pyridin-3-yl)-5-(thieno[3,2-c]pyridin-2-yl)-7H-pyrrolo[2,3-d]pyrimidin-2-amine] showed an EC50 of 6.4 nM.
c1cnc2sc(-c3c[nH]c4ncncc34)nc2c1 [Compound 98, 2-(7H-Pyrrolo[2,3-d]pyrimidin-5-yl)thiazolo[5,4-b]pyridine] showed an EC50 of 22.1 nM.
For CCNc1ncc2c(-c3ccc4nccn4c3)c[nH]c2n1 [Compound 107, N-Ethyl-5-(imidazo[1,2-a]pyridin-6-yl)-7H-pyrrolo[2,3-d]pyrimidin-2-amine], the EC50 was 1.6 nM.
FC(F)(F)CNc1ncc2c(-c3ccc4nccn4c3)c[nH]c2n1 [Compound 114, 5-(Imidazo[1,2-a]pyridin-6-yl)-N-(2,2,2-trifluoroethyl)-7H-pyrrolo[2,3-d]pyrimidin-2-amine] was tested, and the EC50 was 4.6 nM.
Fc1cnc2ccc(-c3c[nH]c4nc(C5CC5)ncc34)cn12 [Compound 145, 2-Cyclopropyl-5-(3-fluoroimidazo[1,2-a]pyridin-6-yl)-7H-pyrrolo[2,3-d]pyrimidine] showed an EC50 of 94.3 nM.
C[C@@H](Nc1ncc2c(-c3ccc4ncc(F)n4c3)c[nH]c2n1)C(F)(F)F [Compound 158, (R)-5-(3-Fluoroimidazo[1,2-a]pyridin-6-yl)-N-(1,1,1-trifluoropropan-2-yl)-7H-pyrrolo[2,3-d]pyrimidin-2-amine] was tested, and the EC50 was 5.5 nM.
CC(C)CNc1ncc2c(-c3cc(F)c4nccn4c3)c[nH]c2n1 [Compound 196, 5-(8-Fluoroimidazo[1,2-a]pyridin-6-yl)-N-isobutyl-7H-pyrrolo[2,3-d]pyrimidin-2-amine] gave an EC50 of 60.5 nM.
CC(C)(C)CNc1ncc2c(-c3cc(F)c4nccn4c3)c[nH]c2n1 [Compound 197, 5-(8-Fluoroimidazo[1,2-a]pyridin-6-yl)-N-neopentyl-7H-pyrrolo[2,3-d]pyrimidin-2-amine] gave an EC50 of 75.4 nM.
In the case of Fc1cc(-c2c[nH]c3nc(NCCC(F)(F)F)ncc23)cn2ccnc12 [Compound 204, 5-(8-Fluoroimidazo[1,2-a]pyridin-6-yl)-N-(3,3,3-trifluoropropyl)-7H-pyrrolo [2,3-d]pyrimidin-2-amine], the EC50 is reported as 6.6 nM.
In the case of Fc1cc(-c2c[nH]c3nc(NCC4CC4)ncc23)cn2ccnc12 [Compound 207, N-(Cyclopropylmethyl)-5-(8-fluoroimidazo[1,2-a]pyridin-6-yl)-7H-pyrrolo [2,3-d]pyrimidin-2-amine], the EC50 is reported as 27.4 nM.
CO[C@H]1CC[C@@H](Nc2ncc3c(-c4cc(F)c5nccn5c4)c[nH]c3n2)CC1 [Compound 216, 5-(8-Fluoroimidazo[1,2-a]pyridin-6-yl)-N-(cis-4-methoxycyclohexyl)-7H-pyrrolo[2,3-d]pyrimidin-2-amine] gave an EC50 of 14.9 nM.
For CN1CCC(Nc2ncc3c(-c4cc(F)c5nccn5c4)c[nH]c3n2)CC1 [Compound 219, 5-(8-Fluoroimidazo[1,2-a]pyridin-6-yl)-N-(1-methylpiperidin-4-yl)-7H-pyrrolo[2,3-d]pyrimidin-2-amine], the EC50 was 5.5 nM.
In the case of Fc1cc(-c2c[nH]c3nc(NC4CCOCC4)ncc23)cn2ccnc12 [Compound 221, 5-(8-Fluoroimidazo[1,2-a]pyridin-6-yl)-N-(tetrahydro-2H-pyran-4-yl)-7H-pyrrolo[2,3-d]pyrimidin-2-amine], the EC50 is reported as 23 nM.
Cc1cn2cc(-c3c[nH]c4nc(C5CC5)ncc34)cc(F)c2n1 [Compound 233, 2-Cyclopropyl-5-(8-fluoro-2-methylimidazo[1,2-a]pyridin-6-yl)-7H-pyrrolo [2,3-d]pyrimidine] showed an EC50 of 268 nM.
In the case of Cc1cn2cc(-c3c[nH]c4nc(NC5CCC(F)(F)CC5)ncc34)cc(F)c2n1 [Compound 258, N-(4,4-Difluorocyclohexyl)-5-(8-fluoro-2-methylimidazo[1,2-a]pyridin-6-yl)-7H-pyrrolo[2,3-d]pyrimidin-2-amine], the EC50 is reported as 45.3 nM.
Compound CCOc1ncc2c(-c3cc(F)c4ncc(C)n4c3)c[nH]c2n1 [Compound 293, 2-Ethoxy-5-(8-fluoro-3-methylimidazo[1,2-a]pyridin-6-yl)-7H-pyrrolo[2,3-d]pyrimidine] has an EC50 of 93.6 nM.
In the case of Fc1cc(-c2c[nH]c3nc(C4CC4)ncc23)cn2c(C(F)F)cnc12 [Compound 359, 2-Cyclopropyl-5-(3-(difluoromethyl)-8-fluoroimidazo[1,2-a]pyridin-6-yl)-7H-pyrrolo[2,3-d]pyrimidine], the EC50 is reported as 115 nM.
